Test results as given in ChEMBL document CHEMBL1201862, “PubChem BioAssay data set” (2004).
The source made the active and inactive calls.

Legend:
[1] = biological target: DNA dC->dU-editing enzyme APOBEC-3A (Homo sapiens, UniProt P31941); assay: Dose Response confirmation of small molecule APOBEC3A DNA Deaminase Inhibitors via a fluorescence-based single-stranded DNA deaminase assay. [Related pubchem assays (depositor defined):AID493011, AID493024]; type: functional
[2] = biological target: DNA dC->dU-editing enzyme APOBEC-3G (Homo sapiens, UniProt Q9HC16); type: functional;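 also: Dose-response counterscreen measuring inhibition of APOBEC3G DNA deaminase activity, run while confirming APOBEC3A inhibitors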
Sequence of DNA dC->dU-editing enzyme APOBEC-3G (Q9HC16 whole entry): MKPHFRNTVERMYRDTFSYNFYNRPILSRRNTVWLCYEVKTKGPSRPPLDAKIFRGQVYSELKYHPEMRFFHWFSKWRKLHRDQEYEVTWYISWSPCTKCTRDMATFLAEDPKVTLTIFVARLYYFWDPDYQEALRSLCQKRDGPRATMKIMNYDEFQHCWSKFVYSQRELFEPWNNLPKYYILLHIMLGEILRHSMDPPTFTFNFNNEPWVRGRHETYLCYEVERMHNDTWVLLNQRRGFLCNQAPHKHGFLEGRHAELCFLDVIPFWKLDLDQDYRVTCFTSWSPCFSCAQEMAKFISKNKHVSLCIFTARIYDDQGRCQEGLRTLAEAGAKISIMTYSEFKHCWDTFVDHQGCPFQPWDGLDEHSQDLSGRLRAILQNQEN

[3] = viability of PTEN-deleted HCT116 cells – cell-based, HCT116 PTEN knockout, dose response (AID 1047); type: functional;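 also: HCT116 colon tumor cells with PTEN knocked out; cells exposed to compound for 60 hours before readout; potency for loss of cell viability measured by luminescence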
[4] = biological target: Voltage-dependent T-type calcium channel subunit alpha-1H (Homo sapiens, UniProt O95180); type: functional;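 also: channel activity triggered by adding a high calcium stimulation buffer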
Sequence of Voltage-dependent T-type calcium channel subunit alpha-1H (O95180 whole entry): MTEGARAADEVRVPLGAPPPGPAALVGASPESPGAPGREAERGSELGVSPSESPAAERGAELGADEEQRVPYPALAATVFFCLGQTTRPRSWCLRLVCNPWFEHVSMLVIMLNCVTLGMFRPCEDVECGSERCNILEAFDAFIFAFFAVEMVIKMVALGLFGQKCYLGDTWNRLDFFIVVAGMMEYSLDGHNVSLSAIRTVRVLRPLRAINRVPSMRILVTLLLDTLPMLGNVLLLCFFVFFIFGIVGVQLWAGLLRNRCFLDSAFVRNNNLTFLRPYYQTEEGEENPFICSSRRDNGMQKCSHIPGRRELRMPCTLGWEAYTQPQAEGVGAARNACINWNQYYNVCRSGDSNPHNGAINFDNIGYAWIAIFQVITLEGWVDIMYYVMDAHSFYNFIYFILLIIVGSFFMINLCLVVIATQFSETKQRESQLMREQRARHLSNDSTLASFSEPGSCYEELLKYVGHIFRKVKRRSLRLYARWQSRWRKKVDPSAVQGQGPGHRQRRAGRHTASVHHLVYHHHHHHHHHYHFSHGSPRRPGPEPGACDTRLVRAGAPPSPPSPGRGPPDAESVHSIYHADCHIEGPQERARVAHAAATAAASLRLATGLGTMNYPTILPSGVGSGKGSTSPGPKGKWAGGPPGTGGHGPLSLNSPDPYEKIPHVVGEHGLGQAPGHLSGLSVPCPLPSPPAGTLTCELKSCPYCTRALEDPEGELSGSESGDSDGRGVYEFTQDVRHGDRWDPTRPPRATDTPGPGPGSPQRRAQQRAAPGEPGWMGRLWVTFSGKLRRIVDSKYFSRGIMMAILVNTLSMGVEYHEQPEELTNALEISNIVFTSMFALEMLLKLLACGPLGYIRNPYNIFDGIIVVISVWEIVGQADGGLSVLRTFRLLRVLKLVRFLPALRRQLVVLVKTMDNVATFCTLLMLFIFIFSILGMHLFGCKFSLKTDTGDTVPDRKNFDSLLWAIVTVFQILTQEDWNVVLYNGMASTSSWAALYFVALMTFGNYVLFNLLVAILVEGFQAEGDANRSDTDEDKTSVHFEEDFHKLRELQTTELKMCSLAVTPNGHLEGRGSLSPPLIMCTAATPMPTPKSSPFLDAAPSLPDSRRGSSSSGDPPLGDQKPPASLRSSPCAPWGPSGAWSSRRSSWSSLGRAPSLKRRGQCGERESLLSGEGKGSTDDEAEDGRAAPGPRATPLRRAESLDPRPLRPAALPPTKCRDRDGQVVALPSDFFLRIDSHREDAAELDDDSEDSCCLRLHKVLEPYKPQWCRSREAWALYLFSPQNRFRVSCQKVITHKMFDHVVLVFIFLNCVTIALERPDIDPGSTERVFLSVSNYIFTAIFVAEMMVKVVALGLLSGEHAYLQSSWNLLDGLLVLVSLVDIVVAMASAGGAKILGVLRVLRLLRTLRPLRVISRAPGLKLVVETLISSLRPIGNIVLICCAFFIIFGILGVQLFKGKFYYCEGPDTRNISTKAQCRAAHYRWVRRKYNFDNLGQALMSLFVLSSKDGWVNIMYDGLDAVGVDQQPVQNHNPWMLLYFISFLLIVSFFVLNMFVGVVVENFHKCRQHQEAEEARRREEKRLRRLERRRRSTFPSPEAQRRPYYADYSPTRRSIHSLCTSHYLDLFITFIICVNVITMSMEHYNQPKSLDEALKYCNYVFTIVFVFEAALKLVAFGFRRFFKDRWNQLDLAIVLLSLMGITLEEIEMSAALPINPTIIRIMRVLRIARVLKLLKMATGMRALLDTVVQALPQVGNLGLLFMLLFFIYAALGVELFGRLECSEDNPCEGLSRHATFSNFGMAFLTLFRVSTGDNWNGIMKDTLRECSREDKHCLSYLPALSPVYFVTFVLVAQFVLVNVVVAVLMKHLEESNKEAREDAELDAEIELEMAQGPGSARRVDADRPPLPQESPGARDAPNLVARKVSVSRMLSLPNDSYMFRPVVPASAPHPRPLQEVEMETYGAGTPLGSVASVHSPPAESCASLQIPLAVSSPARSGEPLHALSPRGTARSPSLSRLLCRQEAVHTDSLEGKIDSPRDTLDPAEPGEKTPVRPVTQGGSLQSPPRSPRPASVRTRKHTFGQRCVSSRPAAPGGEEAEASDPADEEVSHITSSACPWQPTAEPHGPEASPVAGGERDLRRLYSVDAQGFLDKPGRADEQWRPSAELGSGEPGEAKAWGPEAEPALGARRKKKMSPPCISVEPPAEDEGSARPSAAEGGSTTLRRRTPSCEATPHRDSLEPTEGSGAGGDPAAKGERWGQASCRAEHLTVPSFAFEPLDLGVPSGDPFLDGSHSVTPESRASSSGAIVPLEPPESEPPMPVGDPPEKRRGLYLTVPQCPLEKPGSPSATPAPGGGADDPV

[5] = viability of HCT116 lacking mutant beta-catenin – cell-based, human colon tumor, dose response (AID 1045); type: functional;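 also: HCT116 colon tumor cells with beta catenin knocked out; cells exposed to compound for 60 hours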
[6] = biological target: SUMO-activating enzyme (Homo sapiens, UniProt Q9UBT2); assay: blockers of UBC9-mediated SUMO conjugation – biochemical, AlphaScreen, SUMOylation inhibitor project, confirmation (AID 2018); type: functional
Sequence of SUMO-activating enzyme (Q9UBE0 whole entry): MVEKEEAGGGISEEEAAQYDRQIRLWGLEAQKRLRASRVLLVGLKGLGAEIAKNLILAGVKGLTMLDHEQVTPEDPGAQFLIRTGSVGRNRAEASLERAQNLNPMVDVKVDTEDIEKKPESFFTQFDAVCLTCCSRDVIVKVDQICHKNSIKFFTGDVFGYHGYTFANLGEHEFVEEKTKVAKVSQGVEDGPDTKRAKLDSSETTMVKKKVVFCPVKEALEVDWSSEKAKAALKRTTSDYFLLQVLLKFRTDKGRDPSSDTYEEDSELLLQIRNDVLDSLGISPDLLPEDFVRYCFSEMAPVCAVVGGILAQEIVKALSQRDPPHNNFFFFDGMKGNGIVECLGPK
Sequence of SUMO-activating enzyme (Q9UBT2 whole entry): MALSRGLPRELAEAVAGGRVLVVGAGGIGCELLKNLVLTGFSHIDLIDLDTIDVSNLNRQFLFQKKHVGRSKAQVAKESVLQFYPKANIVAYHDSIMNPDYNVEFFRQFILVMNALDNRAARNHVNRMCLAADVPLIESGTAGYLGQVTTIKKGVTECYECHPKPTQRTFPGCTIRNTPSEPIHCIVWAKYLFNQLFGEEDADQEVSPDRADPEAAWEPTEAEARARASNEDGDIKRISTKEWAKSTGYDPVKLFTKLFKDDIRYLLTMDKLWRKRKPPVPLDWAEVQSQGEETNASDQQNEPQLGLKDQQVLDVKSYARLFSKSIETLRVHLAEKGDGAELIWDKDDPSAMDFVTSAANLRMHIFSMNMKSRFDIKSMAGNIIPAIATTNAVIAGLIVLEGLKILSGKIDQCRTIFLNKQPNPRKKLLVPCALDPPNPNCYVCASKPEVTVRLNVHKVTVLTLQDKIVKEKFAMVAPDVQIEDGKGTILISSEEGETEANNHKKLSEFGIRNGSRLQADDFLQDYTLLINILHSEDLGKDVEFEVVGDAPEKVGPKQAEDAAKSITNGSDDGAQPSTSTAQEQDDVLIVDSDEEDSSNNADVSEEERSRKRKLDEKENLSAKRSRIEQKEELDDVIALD

[7] = system: INS1; assay: INS-1E survival protection against cytokine death – cell-based, luminescence, retest, dose response (AID 449756); type: functional; details: Rattus norvegicus;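 also: cell death triggered by IL-1 beta plus TNF-alpha plus IFN-gamma mixture; protective hits raise ATP signal compared with cytokine alone wells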
[8] = biological target: G-protein coupled receptor 55 (Homo sapiens, UniProt Q9Y2T6); assay: inhibition of LPI-stimulated GPR55 beta-arrestin translocation – imaging, U2OS, beta-arrestin-GFP, LPI agonist, primary screen (AID 2013); type: functional;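 also: antagonist potency measured as reduced agonist-driven arrestin aggregation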
Sequence of G-protein coupled receptor 55 (Q9Y2T6 whole entry): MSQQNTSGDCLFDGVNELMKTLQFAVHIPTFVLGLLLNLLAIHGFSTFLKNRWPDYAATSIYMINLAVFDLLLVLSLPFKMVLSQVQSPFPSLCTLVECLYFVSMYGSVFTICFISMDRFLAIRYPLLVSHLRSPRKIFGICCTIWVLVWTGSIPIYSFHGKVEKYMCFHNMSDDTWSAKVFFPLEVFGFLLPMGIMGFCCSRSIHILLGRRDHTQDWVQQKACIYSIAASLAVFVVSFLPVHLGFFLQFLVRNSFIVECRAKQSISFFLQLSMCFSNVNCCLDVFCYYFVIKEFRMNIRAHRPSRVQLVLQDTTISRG

[9] = biological target: Dual specificity tyrosine-phosphorylation-regulated kinase 1A (Rattus norvegicus, UniProt Q63470); type: biochemical, Homo sapiens
[10] = cells
[11] = viability of uninfected HEp-2 cells – cell-based, HTS, cytotoxicity control for RSV inhibitor project, dose response (AID 2410); type: functional; details: human respiratory syncytial virus
[12] = system: Vero; assay: cells; type: functional; details: Chlorocebus sabaeus
[13] = Luminescence Cell-Based Dose Retest to Confirm Inhibitors of Cancer Stem Cells. [Related pubchem assays (depositor defined):AID2717, AID2721]; type: functional; details: Homo sapiens
[14] = system: Vero; assay: cells; type: functional, cell-based; details: Chlorocebus sabaeus
[15] = biological target: T1, fMet-Leu-Phe receptor (Homo sapiens, UniProt P21462); assay: formyl peptide receptor binders – dose response (AID 519); type: functional
T1 sequence (P21462 whole entry): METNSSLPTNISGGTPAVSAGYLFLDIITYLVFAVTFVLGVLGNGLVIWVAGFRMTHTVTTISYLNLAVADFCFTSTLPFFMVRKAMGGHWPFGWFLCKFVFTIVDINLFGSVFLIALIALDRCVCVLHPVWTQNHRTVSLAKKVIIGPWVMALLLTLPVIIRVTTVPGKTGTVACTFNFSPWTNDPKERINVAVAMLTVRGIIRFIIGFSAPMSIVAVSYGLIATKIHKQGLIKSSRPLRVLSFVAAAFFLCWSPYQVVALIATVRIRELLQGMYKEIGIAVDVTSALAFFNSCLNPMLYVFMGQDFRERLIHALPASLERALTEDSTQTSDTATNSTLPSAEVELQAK

[16] = cells; type: functional, cell-based
[17] = cells; type: functional, cell-based; remark: listed apart in the source
[18] = biological target: T2, Sentrin-specific protease 7 (Homo sapiens, UniProt Q9BQF6); type: functional;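 also: Luminescence-based dose-response confirmation of ultra-high-throughput screening hits, measuring inhibition of SENP7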
T2 sequence (Q9BQF6 whole entry): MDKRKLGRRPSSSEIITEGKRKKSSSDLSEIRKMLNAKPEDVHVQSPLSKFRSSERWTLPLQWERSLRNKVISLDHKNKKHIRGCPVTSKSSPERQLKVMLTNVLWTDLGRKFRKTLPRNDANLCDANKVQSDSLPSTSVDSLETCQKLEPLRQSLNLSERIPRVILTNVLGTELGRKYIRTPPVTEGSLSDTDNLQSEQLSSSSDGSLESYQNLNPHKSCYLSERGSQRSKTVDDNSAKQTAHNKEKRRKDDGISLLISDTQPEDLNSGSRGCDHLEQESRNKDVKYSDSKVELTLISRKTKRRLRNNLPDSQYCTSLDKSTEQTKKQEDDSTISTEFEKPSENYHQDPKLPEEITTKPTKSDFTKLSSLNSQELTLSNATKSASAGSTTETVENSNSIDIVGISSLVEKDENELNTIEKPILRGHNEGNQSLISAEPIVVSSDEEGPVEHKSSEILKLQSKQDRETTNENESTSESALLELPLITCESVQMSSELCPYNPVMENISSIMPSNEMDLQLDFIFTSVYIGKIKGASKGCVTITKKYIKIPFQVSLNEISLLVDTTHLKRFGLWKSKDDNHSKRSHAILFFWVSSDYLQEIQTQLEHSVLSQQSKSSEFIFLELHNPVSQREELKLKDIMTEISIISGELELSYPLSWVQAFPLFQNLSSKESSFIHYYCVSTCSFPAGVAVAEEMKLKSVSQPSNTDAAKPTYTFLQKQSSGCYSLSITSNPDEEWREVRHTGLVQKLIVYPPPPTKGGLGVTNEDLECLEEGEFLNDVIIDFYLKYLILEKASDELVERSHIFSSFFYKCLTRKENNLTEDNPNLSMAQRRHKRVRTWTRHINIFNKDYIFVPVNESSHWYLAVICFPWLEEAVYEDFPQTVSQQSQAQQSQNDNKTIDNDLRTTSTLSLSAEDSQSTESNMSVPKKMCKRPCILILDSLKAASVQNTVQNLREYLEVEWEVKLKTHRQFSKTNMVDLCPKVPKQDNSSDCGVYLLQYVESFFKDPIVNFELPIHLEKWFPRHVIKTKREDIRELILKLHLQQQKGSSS

[19] = biological target: T3, Caspase-3 (Homo sapiens, UniProt P42574); type: functional;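 also: Dose-response selectivity test against caspase-3 for candidate inhibitors of sentrin-specific proteases (SENPs)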
T3 sequence (P42574 whole entry): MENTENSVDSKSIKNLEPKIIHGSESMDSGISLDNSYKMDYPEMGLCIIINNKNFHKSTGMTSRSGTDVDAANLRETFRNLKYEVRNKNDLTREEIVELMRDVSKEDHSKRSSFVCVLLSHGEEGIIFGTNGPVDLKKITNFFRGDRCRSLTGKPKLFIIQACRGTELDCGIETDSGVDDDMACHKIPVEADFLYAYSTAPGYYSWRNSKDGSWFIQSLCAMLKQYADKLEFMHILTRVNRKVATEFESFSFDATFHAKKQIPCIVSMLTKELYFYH

[20] = biological target: T4, Sentrin-specific protease 8 (Homo sapiens, UniProt Q96LD8); type: functional;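 also: luminescence read-out of SENP8 inhibition, dose-response confirmation following an ultra-high-throughput screen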
T4 sequence (Q96LD8 whole entry): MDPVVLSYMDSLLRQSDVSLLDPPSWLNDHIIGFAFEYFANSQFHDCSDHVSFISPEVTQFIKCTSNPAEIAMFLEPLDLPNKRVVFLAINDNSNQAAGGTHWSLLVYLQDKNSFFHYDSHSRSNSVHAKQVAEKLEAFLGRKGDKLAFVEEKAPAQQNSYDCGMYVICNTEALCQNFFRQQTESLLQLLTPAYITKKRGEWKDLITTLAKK

[21] = biological target: T5, Sentrin-specific protease 6 (Homo sapiens, UniProt Q9GZR1); type: functional;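 also: Luminescence-based dose-response confirmatory assay of SENP6 inhibition, following up an ultra-high-throughput screen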
T5 sequence (Q9GZR1 whole entry): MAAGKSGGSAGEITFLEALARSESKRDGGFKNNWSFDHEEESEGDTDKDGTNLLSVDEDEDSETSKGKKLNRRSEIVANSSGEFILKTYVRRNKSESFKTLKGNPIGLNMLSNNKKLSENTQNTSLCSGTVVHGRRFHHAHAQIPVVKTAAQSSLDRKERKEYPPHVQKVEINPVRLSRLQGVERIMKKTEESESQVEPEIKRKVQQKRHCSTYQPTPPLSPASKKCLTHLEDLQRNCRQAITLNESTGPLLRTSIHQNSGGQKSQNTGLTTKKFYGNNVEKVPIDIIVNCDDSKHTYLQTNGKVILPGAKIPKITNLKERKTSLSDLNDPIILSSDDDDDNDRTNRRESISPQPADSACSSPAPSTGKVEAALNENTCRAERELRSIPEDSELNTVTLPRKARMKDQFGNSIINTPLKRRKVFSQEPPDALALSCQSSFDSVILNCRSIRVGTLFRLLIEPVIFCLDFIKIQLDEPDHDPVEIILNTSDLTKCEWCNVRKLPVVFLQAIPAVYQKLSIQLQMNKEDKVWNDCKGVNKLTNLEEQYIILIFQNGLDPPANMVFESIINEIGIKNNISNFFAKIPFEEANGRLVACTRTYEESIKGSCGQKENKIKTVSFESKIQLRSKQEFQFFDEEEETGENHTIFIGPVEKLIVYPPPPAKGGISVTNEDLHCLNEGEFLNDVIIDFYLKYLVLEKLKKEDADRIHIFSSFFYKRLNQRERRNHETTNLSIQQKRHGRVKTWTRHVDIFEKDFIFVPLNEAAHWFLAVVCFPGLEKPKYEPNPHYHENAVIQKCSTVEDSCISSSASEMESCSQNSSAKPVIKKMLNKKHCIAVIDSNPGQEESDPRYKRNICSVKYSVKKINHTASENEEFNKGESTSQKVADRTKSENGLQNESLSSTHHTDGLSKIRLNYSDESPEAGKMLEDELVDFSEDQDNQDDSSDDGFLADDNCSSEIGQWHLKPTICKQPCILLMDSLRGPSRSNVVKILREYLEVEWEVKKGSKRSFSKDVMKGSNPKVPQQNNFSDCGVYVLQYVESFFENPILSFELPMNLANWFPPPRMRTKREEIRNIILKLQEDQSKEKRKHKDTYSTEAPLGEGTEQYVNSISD

[22] = Vero E6 cell cytotoxicity, dose response, cytotoxicity control for non-replicating M. tuberculosis project, secondary assay (AID 492998); type: functional, VeroE6; details: Vero C1008
[23] = THP-1 cell cytotoxicity, dose response, cytotoxicity control for non-replicating M. tuberculosis project (AID 489025); type: functional
[24] = HepG2 cell cytotoxicity, dose response, cytotoxicity control for non-replicating M. tuberculosis project (AID 489018); type: functional; details: Mycobacterium tuberculosis
[25] = system: H9c2; assay: cells; type: functional, cell-based; details: Rattus norvegicus, H9c2, Myocardium;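 also: confirmatory concentration-response retest of ultra-high-throughput screening hits for modulation of myocardial damage; cell death induced by hydrogen peroxide oxidative stress; compound pretreatment for 60 min then peroxide exposure for 2 h; potency is for protecting the cells against peroxide damage rather than for killing them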
[26] = cells; type: functional
[27] = biological target: T6, Rac GTPase-activating protein 1 (Homo sapiens, UniProt Q9H0H5); assay: blockers of MgcRacGAP-driven Rac1 GTP hydrolysis – biochemical, ADP Hunter fluorescence, primary and confirmatory, confirmation (AID 624330); type: functional
T6 sequence (Q9H0H5 whole entry): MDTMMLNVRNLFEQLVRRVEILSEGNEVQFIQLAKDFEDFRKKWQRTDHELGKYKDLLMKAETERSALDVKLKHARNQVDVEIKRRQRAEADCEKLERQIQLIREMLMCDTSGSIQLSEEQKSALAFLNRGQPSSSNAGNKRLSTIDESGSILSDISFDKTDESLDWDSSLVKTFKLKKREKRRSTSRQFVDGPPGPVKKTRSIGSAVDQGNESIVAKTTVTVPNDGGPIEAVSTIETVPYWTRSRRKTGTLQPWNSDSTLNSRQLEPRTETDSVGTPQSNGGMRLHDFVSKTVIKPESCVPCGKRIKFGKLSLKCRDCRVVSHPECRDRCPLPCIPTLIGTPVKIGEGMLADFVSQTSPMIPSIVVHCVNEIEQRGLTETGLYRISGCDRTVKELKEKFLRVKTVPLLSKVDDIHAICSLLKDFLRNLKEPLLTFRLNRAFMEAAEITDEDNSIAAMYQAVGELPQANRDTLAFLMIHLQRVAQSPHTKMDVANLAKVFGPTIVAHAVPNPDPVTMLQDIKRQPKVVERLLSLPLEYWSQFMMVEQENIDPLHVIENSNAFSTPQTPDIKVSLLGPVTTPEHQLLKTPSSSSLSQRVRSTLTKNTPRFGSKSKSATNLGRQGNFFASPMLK

Sequence of DNA dC->dU-editing enzyme APOBEC-3A (P31941 whole entry): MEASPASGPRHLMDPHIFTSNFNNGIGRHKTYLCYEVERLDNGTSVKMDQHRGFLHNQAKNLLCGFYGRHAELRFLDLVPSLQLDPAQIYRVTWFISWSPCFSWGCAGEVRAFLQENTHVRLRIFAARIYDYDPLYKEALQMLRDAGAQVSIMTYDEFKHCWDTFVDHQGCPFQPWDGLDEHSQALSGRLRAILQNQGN

In the case of C[N+](C)(C)CCCNC(=O)c1ccc(C=NO)nc1, the IC50 [1] is reported as 2.7 µM (active) and the IC50 [2] is reported as 4.16 µM (active).
For CC[n+]1c(/C=C/C=C/N(C(C)=O)c2ccccc2)sc2ccccc21, the EC50 [3] was 20.8 µM (active), the EC50 [4] was 2.21 µM (active) and the EC50 [5] was 19.7 µM (active).
In the case of COc1ccc(-c2nnc(SCC(=O)Nc3cc(C)on3)[nH]2)cc1, the IC50 [6] is reported as > 100 µM (inactive).
With Cc1ccccc1-c1cc(C(=O)Nc2sc(C)c(C)c2C(N)=O)c2ccccc2n1 the AC50 [7] was 5.87 µM (active) and the IC50 [8] was 2.76 µM (active).
With CC12CCC(C(=O)Nc3nc4ccc(Br)cc4s3)(OC1=O)C2(C)C (stereo not given) the AC50 [9] was 1.36 µM (active).
In the case of Cc1nn(-c2nc3ccccc3s2)c(C)c1Oc1ccccc1O, the IC50 [10] is reported as 15.6 µM (active), the CC50 [11] is reported as 20.6 µM (active) and the CC50 [12] is reported as > 25 µM (active). For the same compound, the AC50 [13] was 5.5 µM (active), the IC50 [14] was 11.7 µM (active) and the Ki [15] was > 66.7 µM (inactive).
With CCN(CCCNC(=O)CCc1nc(-c2ccc(OC)cc2)no1)c1cccc(C)c1 the EC50 [16] was > 350 µM (not active), the EC50 [4] was 4.41 µM (active) and the EC50 [17] was > 350 µM (not active).
With COc1ccc(C(N)=NOC(=O)Cc2cccs2)cc1 the IC50 [18] was 11.3 µM (active), the IC50 [19] was 32 µM (active) and the IC50 [20] was 6.43 µM (active). For the same compound, the IC50 [21] was 37.2 µM (active).
With COc1ccc(C(=O)COC(=O)c2n[nH]c3ccccc23)c(OC)c1 the IC50 [18] was 8.72 µM (active), the IC50 [19] was 33 µM (active) and the IC50 [20] was 40.3 µM (active). The IC50 [21] was 29.9 µM (active).
For CC(=O)c1ccc(C(=O)Nc2nnc(-c3ccc(Cl)cc3)o2)cc1, the CC50 [22] was 8.62 µM (active), the CC50 [23] was 7.9 µM (active) and the CC50 [24] was 13.1 µM (active). The IC50 [25] was > 79 µM (inactive) and the IC50 [26] was 0.47 µM (active).
For COc1ccc([N+](=O)[O-])cc1CSc1ccccn1, the IC50 [1] was 8.44 µM (active) and the IC50 [2] was 7.41 µM (active).
With CCCc1n(CC(O)COC2CCCCC2)c2ccccc2[n+]1CC (stereo not given) the IC50 [1] was 3.26 µM (active) and the IC50 [2] was 3.93 µM (active).
For Cc1csc(NC(=O)CSc2nc3ccccc3s2)n1, the EC50 [4] was 7.68 µM (active).
With CCc1ccccc1/N=C1/S/C(=C/c2ccccc2OCC(=O)N2CCOCC2)C(=O)N1C the IC50 [8] was 2.71 µM (active).
With COc1cc(/C=C2\Oc3cc(O)ccc3C2=O)ccc1O the IC50 [27] was 26 µM (active) and the AC50 [9] was 0.641 µM (active).
With COc1ccc(/C=C/C(=O)O)cc1 [4-METHOXYCINNAMIC ACID] the AC50 [9] was 21 µM (active).
